Measured values taken from US20240059675A1, “PIPERIDINYLPYRIDINYLCARBONITRILE DERIVATIVES AS INHIBITORS OF GLUTAMINYL-PEPTIDE CYCLOTRANSFERASE AND GLUTAMINYL-PEPTIDE CYCLOTRANSFERASE LIKE PROTEIN” (Boehringer Ingelheim International GmbH, priority 2022, published 2024).

Legend:
[1] = system: SIRPα signalling induced by Raji cells; test: Assay B: SIRPα signalling assay using Raji cells; format: cell-based; details: Homo sapiens, 48 h compound incubation, Jurkat PathHunter SIRPαV1 reporter cells, read-out: Inhibition of SIRPα signalling induced by Raji cells: IC50
Description: (§1) Two cell types are independently used: the Raji cell line (lymphoblast-like human cell line derived from B lymphocytes from a Burkitt's lymphoma patient in 1963) and A549 cells (adenocarcinomic human alveolar basal epithelial cells).
(§2) Test compounds were dissolved in 100% DMSO and serially diluted into a white 384-well microtiter cell culture plate (PerkinElmer #60076780 in case of Raji assay; PDL-coated plates Greiner #781945 in case of A549 assay). 5000 Raji cells (ATCC #CC86) or 5000 A549 cells (ATCC #CCL-185) in Assay Complete Cell Plating reagent 30 (DiscoverX 93-0563R30B) were added per well. The assay plate was incubated for 48 h at 37° C., 95% humidity and 5% CO2. 15000 reporter cells (Jurkat PathHunter SIRPαV1, DiscoverX #93-1135C19) were added to each well, and the plate was incubated for 5 h at 37° C., 95% humidity and 5% CO2. Bioassay reagent 1 of the PathHunter Bioassay detection kit (DiscoverX 93-0001) was added to each well of the plate using a multichannel pipette followed by a 15 min incubation at room temperature. Afterwards bioassay reagent 2 was added followed by 60 min incubation at room temperature (incubation in the dark).
(§3) The analysis of the data was performed using the luminescence signal generated by beta-galactosidase in the PathHunter reporter cell line. The luminescence measurement was done using a Pherastar Multi-Mode Reader. Dose-response curves & IC50 data were calculated with 4-parameter sigmoidal dose response formula.

[2] = system: SIRPα signalling induced by A549 cells; test: Assay B: SIRPα signalling assay using A549 cells; format: cell-based; details: Homo sapiens, 48 h compound incubation, Jurkat PathHunter SIRPαV1 reporter cells, read-out: Inhibition of SIRPα signalling induced by A549 cells: IC50
Description: as §1, §2, §3

[3] = Assay C: permeability in CACO-2 cells; format: in vitro ADME; details: human, pH 7.2; for Papp A→B: Caco-2, apical to basolateral; for efflux ratio: Caco-2, permeability B-A / permeability A-B
[4] = biological target: QPCTL (Homo sapiens (Human), UniProt Q9NXS2); test: Assay A: biochemical QPCTL activity assay (MALDI-TOF MS, CD47 peptide substrate); details: 0.5 nM enzyme, 10 μM CD47 peptide substrate; read-out: Inhibition of QPCTL: IC50
[5] = biological target: QPCT (Homo sapiens (Human), UniProt Q16769); test: Assay A: biochemical QPCT activity assay (MALDI-TOF MS, CD47 peptide substrate); details: 0.5 nM enzyme, 20 μM CD47 peptide substrate; read-out: Inhibition of QPCT: IC50
Chain of QPCT (Q16769 29-361): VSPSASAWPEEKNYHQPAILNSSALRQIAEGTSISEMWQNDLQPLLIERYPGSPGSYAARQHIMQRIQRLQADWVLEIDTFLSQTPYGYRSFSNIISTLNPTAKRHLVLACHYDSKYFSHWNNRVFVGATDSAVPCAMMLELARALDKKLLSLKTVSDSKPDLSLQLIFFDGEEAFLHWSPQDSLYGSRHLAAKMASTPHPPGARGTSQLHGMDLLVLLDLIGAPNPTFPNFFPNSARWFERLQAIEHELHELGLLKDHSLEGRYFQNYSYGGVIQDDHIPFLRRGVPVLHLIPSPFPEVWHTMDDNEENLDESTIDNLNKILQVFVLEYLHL

Chain of QPCTL (Q9NXS2 whole entry): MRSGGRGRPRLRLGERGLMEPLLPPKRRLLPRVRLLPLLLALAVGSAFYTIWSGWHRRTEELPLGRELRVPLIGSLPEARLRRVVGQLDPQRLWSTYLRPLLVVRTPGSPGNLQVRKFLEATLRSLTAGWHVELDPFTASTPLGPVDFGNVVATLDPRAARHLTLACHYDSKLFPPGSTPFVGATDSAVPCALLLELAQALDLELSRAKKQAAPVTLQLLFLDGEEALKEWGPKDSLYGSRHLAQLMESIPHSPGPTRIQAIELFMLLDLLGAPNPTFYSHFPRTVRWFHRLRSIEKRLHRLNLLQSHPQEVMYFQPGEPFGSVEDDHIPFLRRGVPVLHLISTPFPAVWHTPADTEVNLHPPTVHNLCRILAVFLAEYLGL

Row | IC50 [1] | IC50 [2] | Papp A→B [3] | IC50 [4] | IC50 [5] | efflux ratio [3] | SMILES
1 | 245 nM | 60 nM | 4.8 ×10⁻⁶ cm/s | 2 nM | 17 nM | 3.5 | Cn1cnnc1C1CCN(c2c(C#N)ccnc2-c2ccc(F)nc2)CC1 [Example 2]
2 | 467 nM | 29 nM | 4.9 ×10⁻⁶ cm/s | 2 nM | 2 nM | 8.4 | Cn1cnnc1C1(C)CCN(c2c(C#N)ccnc2-c2ccc(F)nc2)CC1 [Example 3]
3 | 182 nM | 38 nM | 8.5 ×10⁻⁶ cm/s | 1 nM | 12 nM | 5.9 | CC(C)Oc1cc(-c2nccc(C#N)c2N2CCC(c3nncn3C)CC2)cnc1F [Example 4]
4 | 350 nM | 44 nM | 2 ×10⁻⁶ cm/s | 2 nM | 13 nM | 14 | COc1cc(-c2nccc(C#N)c2N2CCC(c3nncn3C)CC2)cnc1F [Example 5]
5 | 190 nM | 34 nM | 34 ×10⁻⁶ cm/s | 2 nM | 8 nM | 2.3 | Cc1cc(-c2nccc(C#N)c2N2CCC(F)(c3nncn3C)CC2)cnc1F [Example 6]
6 | 214 nM | 27 nM | 18 ×10⁻⁶ cm/s | 2 nM | 12 nM | 3.3 | COc1cc(-c2nccc(C#N)c2N2CCC(F)(c3nncn3C)CC2)cnc1F [Example 7]
7 | 1090 nM | – | 1.8 ×10⁻⁶ cm/s | 4 nM | 26 nM | 7.8 | Cn1cnnc1C1CCN(c2c(-c3ccc(F)nc3)ccnc2C#N)CC1 [Example 9]
8 | 352 nM | – | 11 ×10⁻⁶ cm/s | 4 nM | 8 nM | 5.6 | Cn1cnnc1C1(F)CCN(c2c(-c3ccc(F)nc3)ccnc2C#N)CC1 [Example 10]
9 | 1820 nM | 237 nM | 3.1 ×10⁻⁶ cm/s | 14 nM | 11 nM | 11.6 | Cn1cnnc1C1(C)CCN(c2c(-c3ccc(F)nc3)ccnc2C#N)CC1 [Example 11]
10 | 53 nM | 31 nM | 2.5 ×10⁻⁶ cm/s | 2 nM | 2 nM | 11.2 | Cn1cnnc1C1(F)CCN(c2c(C#N)ccnc2-c2cnc3nnc(C(C)(C)C)n3c2)CC1 [Example 12]
11 | 65 nM | 22 nM | 1 ×10⁻⁶ cm/s | 1 nM | 1 nM | 35 | Cn1cnnc1C1(F)CCN(c2c(C#N)ccnc2-c2cnc3nc(C(C)(C)C)cn3c2)CC1 [Example 13]
12 | 436 nM | 116 nM | 41 ×10⁻⁶ cm/s | 11 nM | 10 nM | 0.6 | Cn1cnnc1C1(F)CCN(c2c(C#N)ccnc2-c2cnn3ncccc23)CC1 [Example 14]
13 | 59 nM | 33 nM | 0.9 ×10⁻⁶ cm/s | 1 nM | 1 nM | 14.1 | Cn1cnnc1C1(F)CCN(c2c(C#N)ccnc2-c2cnc3nc(C(F)(F)F)cn3c2)CC1 [Example 15]
14 | 86 nM | 8 nM | 40 ×10⁻⁶ cm/s | 1 nM | 4 nM | 1.7 | Cc1cc(C#N)c(N2CCC(F)(c3nncn3C)CC2)c(-c2ccc(F)nc2)n1 [Example 16]
15 | 92 nM | 49 nM | 38 ×10⁻⁶ cm/s | 4 nM | 8 nM | 1.3 | Cn1cnnc1C1(F)CCN(c2c(C#N)cc(C(F)(F)F)nc2-c2ccc(F)nc2)CC1 [Example 17]
16 | 482 nM | 112 nM | 41 ×10⁻⁶ cm/s | 8 nM | 23 nM | 1.4 | Cn1cnnc1C1(F)CCN(c2c(C#N)ccnc2-c2cnc(F)c(Cl)c2)CC1 [Example 18]
17 | 509 nM | 18 nM | 4.9 ×10⁻⁶ cm/s | 2 nM | 10 nM | 6.5 | Cn1cnnc1C1(F)CCN(c2c(C#N)ccnc2-c2cncc(-n3cccn3)c2)CC1 [Example 19]

Row | IC50 [1] | IC50 [2] | Papp A→B [3] | IC50 [4] | IC50 [5] | efflux ratio [3] | SMILES
18 | 1950 nM | 342 nM | – | 21 nM | 29 nM | – | Cn1cnnc1C1(F)CCN(c2c(C#N)ccnc2-c2cncc(C3CC3)c2)CC1 [Example 20]
19 | 322 nM | 22 nM | – | 1 nM | 3 nM | – | Cn1cc2cc(-c3nccc(C#N)c3N3CCC(F)(c4nncn4C)CC3)cnc2n1 [Example 21]
20 | 653 nM | 103 nM | 0.2 ×10⁻⁶ cm/s | 3 nM | 12 nM | 10 | Cn1cnnc1C1(F)CCN(c2c(C#N)ccnc2-c2ccnnc2)CC1 [Example 22]
21 | 1660 nM | 114 nM | – | 6 nM | 32 nM | – | Cn1cnnc1C1(F)CCN(c2c(C#N)ccnc2-c2cnc(F)c(F)c2)CC1 [Example 23]
22 | 1770 nM | 693 nM | – | 18 nM | 31 nM | – | Cn1cnnc1C1(F)CCN(c2c(C#N)ccnc2-c2cn[nH]c2)CC1 [Example 24]
23 | 1610 nM | 44 nM | – | 10 nM | 30 nM | – | Cn1cnnc1C1(F)CCN(c2c(C#N)ccnc2-c2cnsc2)CC1 [Example 25]
24 | 103 nM | 7 nM | 45 ×10⁻⁶ cm/s | – | – | 1.7 | Cn1cnnc1C1(F)CCN(c2c(C#N)ccnc2-c2cnc(F)c(OCC3CC3)c2)CC1 [Example 26]
25 | 176 nM | 39 nM | 36 ×10⁻⁶ cm/s | 3 nM | 5 nM | 2 | Cn1cnnc1C1(F)CCN(c2c(C#N)ccnc2-c2cnc(F)c(OC3CC3)c2)CC1 [Example 27]
26 | 180 nM | 33 nM | – | 2 nM | 3 nM | – | C=CCOc1cc(-c2nccc(C#N)c2N2CCC(F)(c3nncn3C)CC2)cnc1F [Example 28]
27 | 81 nM | 13 nM | 2.5 ×10⁻⁶ cm/s | – | – | 15.2 | Cn1cnnc1C1(F)CCN(c2c(C#N)ccnc2-c2cnc3nn(C(C)(C)C(F)(F)F)cc3c2)CC1 [Example 29]
28 | 87 nM | 47 nM | 0.5 ×10⁻⁶ cm/s | 2 nM | 2 nM | 54.9 | Cn1cnnc1C1(F)CCN(c2c(C#N)ccnc2-c2cnc3nn(C4(C(F)(F)F)CC4)cc3c2)CC1 [Example 30]
29 | 179 nM | 21 nM | 1.7 ×10⁻⁶ cm/s | 2 nM | 3 nM | 27.6 | Cn1cnnc1C1(F)CCN(c2c(C#N)ccnc2-c2cnc3nn(C4(C)CC(F)(F)C4)cc3c2)CC1 [Example 31]
30 | 6 nM | 3 nM | 3.5 ×10⁻⁶ cm/s | 1 nM | 1 nM | 12.6 | Cn1cnnc1C1(F)CCN(c2c(C#N)ccnc2-c2cnc3nn(C(C)(C)c4ccc(F)cc4)cc3c2)CC1 [Example 32]
31 | 3240 nM | – | – | – | – | – | Nc1ncc(C2CCN(c3ncccc3-c3ccc(F)nc3)CC2)s1 [Example 1094, reference compound]
32 | 2200 nM | 161 nM | – | – | – | – | Nc1nnc(C2CCN(c3ncccc3-c3ccc(F)nc3)CC2)s1 [Example 1095, reference compound]
33 | 2970 nM | 868 nM | – | – | – | – | Cn1cnnc1C1CCN(c2ncccc2-c2cccnc2)CC1 [SEN180, reference compound]

Row | SMILES | IC50 [1] | IC50 [2] | Papp A→B [3] | IC50 [4] | IC50 [5] | efflux ratio [3]
34 | Cn1cnnc1C1(F)CCN(c2c(C#N)ccnc2-c2ccc(F)nc2)CC1 [Example 1] | 168 nM | 51 nM | 28 ×10⁻⁶ cm/s | – | – | –
35 | Cn1cnnc1C1(F)CCN(c2c(C#N)ccnc2-c2cnc3nn(C(C)(C)C)cc3c2)CC1 [Example 8] | 25 nM | 22 nM | 1.3 ×10⁻⁶ cm/s | – | – | –
36 | Cn1cnnc1C1CCN(c2ncccc2-c2ccc(F)nc2)CC1 [SEN177, reference compound] | 1360 nM | 214 nM | – | – | – | –
